Experiments:
[1] = tested on: PDE IV inhibitor-induced emesis in the ferret; experiment: Ferret emesis: PDE4 inhibitors and neurokinin-1 receptor antagonists; assay type: in vivo; settings: NK-1 antagonist given before oral emetic dose of PDE IV inhibitor
Method: Ferret Emesis: PDE4 Inhibitors and Neurokinin-1 Receptor Antagonists
Intracerebroventricular (i.c.v.) administration was performed following a surgical implantation of an i.c.v. guide cannula. Under isoflurane anaesthesia, a 22 gauge stainless steel guide cannula (total length=20 mm) was lowered 9 mm below the surface of the skull, at the midline, 2 mm anterior to the cross-suture of the posterior edge of the skull. The tip of the guide cannula is then positioned 3-5 mm directly above the area postrema. The guide cannula was fixed to the skull using 2 screws and dental acrylic cement. The animals received antibiotic (Clamoxyl LA, SmithKline Beecham, Surrey, U.K.; 15 mg kg^−1 s.c.) and analgesic injections (Zenecarp, C-Vet Limited, Edmounds, U.K.; 5 mg kg^−1 s.c.) and were housed in individual cages. They were allowed at least 1 week to recover. Intracerebroventricular administration of drugs was performed by inserting an injection unit of 24-25 mm (level of the area postrema) or 27 mm (for brain tissue injection) length into the guide cannula and infusing 2 μl of the drug solution (or vehicle) over 1 minute. […]
Anti-emetic agents ondansetron (3 mg kg^−1 i.p.), and neurokinin-1 receptor antagonists (3 mg kg^−1 i.p. or s.c.) were administered 30 minutes prior to an oral challenge with an emetic dose of selected PDE IV inhibitors. […] The emetic response was monitored as described earlier. […]

emesis in ferrets = experiment: Ferret emesis: PDE4 inhibitors and alpha-2 adrenoreceptor agonists/antagonists; settings: for emesis following administration of the drug itself: route not stated

COc1ccccc1CN[C@H]1CCCN[C@H]1c1ccccc1 [CP-99,994]
effect on PDE IV inhibitor-induced emesis [1]: abolished

CS(=O)(=O)NCCN1C(=O)NC[C@]12CCN1CCc3c(oc4ccccc34)[C@@H]1C2 [MK-467]
emesis following administration of the drug itself (emesis in ferrets): Emesis was also recorded

CN1CC[C@]2(CCN3CCc4c(oc5ccccc45)[C@@H]3C2)N(C)C1=O.Cl [MK-912]
emesis following administration of the drug itself (emesis in ferrets): Emesis was also recorded

Clc1cccc(Cl)c1N=C1NCCN1 [clonidine]
emesis induced by CT-2450 (emesis in ferrets; 250 μg kg−1 pre-treatment, CT-2450 30 mg kg−1 p.o., all animals treated): abolished
animals with complete protection against R-rolipram-induced emesis (emesis in ferrets; 250 μg kg−1 pre-treatment, R-rolipram 3 mg kg−1 p.o.): two out of three
animals with complete protection against RS14203-induced emesis (emesis in ferrets; 250 μg kg−1 pre-treatment, RS14203 1 mg kg−1 p.o.): five out of six
latency of onset of RS14203-induced emesis (emesis in ferrets; RS14203 1 mg kg−1 p.o. challenge): increased
number of retches and vomits induced by RS14203 (emesis in ferrets; RS14203 1 mg kg−1 p.o. challenge, clonidine 62.5-250 μg kg−1): dose-dependently decreased

COC(=O)[C@@H]1[C@H]2C[C@H]3c4[nH]c5ccccc5c4CCN3C[C@@H]2CC[C@@H]1O [yohimbine]
emesis (retching and vomiting) induced by the drug itself (emesis in ferrets; intraperitoneal injection): induced retching and vomiting in all ferrets treated
